Measured values taken from PubChem BioAssay (NCI).
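Method: 48-hour compound exposure of cells in 96-well plates, five concentrations, linear interpolation of endpoints. The concentration for full growth arrest is given as TGI.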

Experiments:
Experiment in all cases: DTP human tumour cell line panel, 48 h
DMS 114 small cell lung = test system: DMS 114 small cell lung
HOP-18 NSCLC = test system: HOP-18 NSCLC
RXF-631 renal = test system: RXF-631 renal
M19-MEL melanoma = test system: M19-MEL melanoma

| Structure (SMILES) | TGI (DMS 114 small cell lung) [µM] | TGI (HOP-18 NSCLC) [µM] | TGI (RXF-631 renal) [µM] | TGI (M19-MEL melanoma) [µM] |
| --- | --- | --- | --- | --- |
| Cc1ccc(CC(C)N)cc1 (centres undefined) | > 100 | > 100 | > 100 |  |
| COC(=O)CC1NC(=O)C1C1(C)OCCO1 (centres undefined) | > 100 |  |  | > 100 |
| CCOC(=O)CSc1nnc(C(Sc2nc(-c3ccccc3)c(-c3ccccc3)[nH]2)C(C)C)n1-c1ccccc1 (centres undefined) | > 10 |  |  | > 10 |
| COc1cc2c(cc1OC)C1(c3ccc(Cl)cc3)ON=C(c3ccccc3)N1CS2 (centres undefined) | > 100 | > 100 | > 100 | > 100 |
| CCCc1ccc(NCc2cc(OC)c(OC)c(OC)c2)cc1 | 29.8 | > 100 |  | 44.6 |
| CC(NC(C)(C)C)C(=O)c1cccc(Cl)c1 (centres undefined) | > 100 |  | > 100 | > 100 |
| Nc1ccc(C(=O)NN2C(=O)C(Cl)C2c2ccccc2)cc1 (centres undefined) | > 100 |  |  | > 100 |
| O=C(Cc1ccccc1)NN1C(=O)C(Cl)C1c1ccccc1O (centres undefined) | 46.5 | 61.2 |  | 89.6 |
| N#C/C(=C\c1c[nH]c2ccccc12)C(=O)c1ccc(O)c(O)c1 |  | 93.5 |  | > 100 |
